Experimental data published in patent publication US20230146455A1, “TREATMENT OF INFLAMMATORY DISEASES WITH PEPTIDES AND PHARMACEUTICAL COMPOSITIONS” (Yuyu Pharma, Inc., priority 2020, published 2023).
Several values for one entry are separate records, joined by “and”; a condition that tells them apart may be missing. Equal values may be shown once. Read-outs that look alike come from different tables or passages of the source. Where a SMILES comes first, the peptide text is derived from it. [ ]: non-standard residue; d: D form. Hyp = O=C(O)[C@@H]1C[C@@H](O)CN1

How the values were obtained:
[1] = Apparent permeability, 21 day cultured Caco-2 cell monolayer, bi-directional (Example 7); assay type: in vitro ADME; details: Caco-2, 2 μM, 120 minutes; for recovery at 120 min, 2 μM: human
Method: (§1) 10 mM stock solution of test compound was prepared in DMSO. 10 mM stock was diluted with 100% DMSO to prepare 0.2 mM, 0.2 mM stock was diluted with HBSS buffer to a final concentration of 2 μM.
(§2) Add 250 μL of DMEM to the basal compartment of 96 well multi-screen Caco-2 plates and seed 12000 cells/well (0.16×10^6 cells/ml) in all the apical wells required and 2 wells with only media as blank without cells. Place the Caco-2 plate in CO2 incubator at 37° C. for proliferation of cells.
(§3) The utilized media was replenished every alternate day by fresh medium. On 21st day, utilized medium was removed and washed twice with HBSS Buffer and incubated with HBSS buffer 30 min in incubator and initiated the assay.
(§4) 75 μL of test compound was added to apical wells and 250 μL of HBSS buffer with 1% DMSO was added to basal wells. Samples were collected at 120 min and processed as stated below.
(§5) 250 μL of test compound was added to basal wells and 75 μL of HBSS buffer with 1% DMSO was added to apical wells. Samples were collected at 120 min and processed as stated below.
(§6) Single point calibration curve in HBSS buffer was used. 100 μL of supernatant was diluted with 200 μL of water and submitted for LC-MS/MS analysis.
(§7) Efflux ratio=Papp of basal to apical samples/Papp of apical to basal samples
(§8) Recovery: {(dQ of Apical+dQ of Basal)/Standard dQ}*100

Caco-2 cells monolayer = experiment: as above; assay type: in vitro ADME
Method: as §1, §2, §3, §4, §5, §6, §7, §8

[2] = test system: IL-6 cytokine release in poly I:C stimulated primary human corneal epithelial cells; experiment: Soluble IL-6 cytokine release in poly I:C stimulated primary human corneal epithelial cells by ELISA (Example 6); assay type: cell-based
Excerpt: To determine the effect of compound by assessing the soluble IL-6 cytokine release in poly I:C stimulated primary human corneal epithelial cells by ELISA. • Test System: Primary Human Corneal Epithelial cells • Assay Format: 96-well plate format • Method of Detection: Enzyme-linked immunosorbent assay • Assay Controls: Hinokitiol Assay protocol as shown below was used to determine the significant effect of test compounds. The data was statistically analyzed by one-way ANOVA with a Bonferroni post test comparing all the columns. The significance was represented by the p value.

[3] = test system: IL-6 release in human PBMCs stimulated by poly(I:C), LPS or PMA/Ionomycin; experiment: IL-6 ELISA in stimulated human PBMCs, 2nd pilot study (Example 8); assay type: cell-based; details: for IL-6 (ELISA), individual wells / IL-6 (ELISA), Mean: 24 hr
Method: Human PBMCs frozen in a cryopreserve was thawed, washed with Hank's Balanced Salt Solution containing 10% Fetal bovine serum, and seeded onto a 24-well plate at a density of 1×10^6 cells/well with culture RPMI media containing 10% Fetal bovine serum in growth media in a 24 well plate for 12, 24, and 48 hrs and maintained at 37° C. in an atmosphere of 95% air and 5% CO2.
Human PBMCs was pretreated with a test compound; YDE-011 at 30 uM, 1 μM for 2 h before stimulation. An equal volume of 0.5% DMSO was used as a vehicle control. […] The supernatants from treated cells were harvested at 24 h and placed in 96 well for Human IL-6 ELISAS measurement according to the manufacturer's instructions (Invitrogen, CA, USA). […]
IL-6 measurement was performed by the sandwich ELISA method. The capture antibody was coated on a 96-well plate (Corning™ Costar™ 9018, NY, USA) at 100 ul/well and incubated overnight at 4° C. The interaction was blocked at room temperature for 2 h to prevent non-specific binding of the antigen-antibody. Then, the plate was incubated overnight at 4° C. with 1:200 diluted cell supernatants and standard dilute serial dilutions at 100 ul/well. Detection antibody was dispensed into the plate at 100 ul/well, and then allowed to incubate at a room temperature for 1 h. Finally, streptavidin-HRP (100 ul/well) was incubated at room temperature for 30 min. […] The sample reading was measured at 450 nm wavelength and 570 nm, and the quantification of the sample was converted as concentration (ng/ml) based on the standard curve extrapolation.

[4] = test system: rats with ELGE dry eye condition; experiment: Corneal damage induced by ELGE in rats; assay type: in vivo, rat

## CC(C)C[C@H](NC(=O)CNC(=O)[C@H](CC(C)C)NC(=O)[C@H](CCC(N)=O)NC(=O)CNC(=O)[C@@H]1C[C@@H](O)CN1)C(=O)N[C@@H](C)C(=O)NCC(=O)N1CCC[C@H]1C(=O)N[C@@H](CCCCN)C(=O)O [YDE-011] (H-[Hyp]GQLGLAGPK-OH)
[1]; read-out: A to B % Recovery
  recovery at 120 min, 2 μM: 15%
[1]; read-out: B to A % Recovery
  recovery at 120 min, 2 μM: 88.5%
Caco-2 cells monolayer
  Classification (Caco-2 Permeability): LOW
[2]
  Poly I:C induced IL-6 cytokine release (in words): attenuate Poly I:C induced of IL-6 cytokine release in a dose dependent manner
  tested concentrations with significant attenuation of IL-6 cytokine release: 30 μM, 10 μM, 1 μM and 0.1 μM
[3]; 1 uM, poly I:C, LPS or PMA/Ionomycin
  IL-6 induction in PBMCs (in words): effectively and significantly reduced IL-6 induction
[3]; PBMC + LPS(5 ug/ml) + YDE-011 1 uM
  IL-6 (ELISA), individual wells: 14532.1 and 12561.2
[3]; PBMC + LPS(5 ug/ml) + YDE-011 1 uM, LPS alone Mean 26093.3
  IL-6 (ELISA), Mean: 13546.7
[3]; PBMC + LPS(5 ug/ml) + YDE-011 30 uM
  IL-6 (ELISA), individual wells: 23199.5 and 18310.8
[3]; PBMC + LPS(5 ug/ml) + YDE-011 30 uM, LPS alone Mean 26093.3
  IL-6 (ELISA), Mean: 20755.2
[3]; PBMC + PMA(1 ng/ml)/Ionomycin(0.5 ug/ml) + YDE-011 1 uM
  IL-6 (ELISA), individual wells: 2817.2 and 3828.2
[3]; PBMC + PMA(1 ng/ml)/Ionomycin(0.5 ug/ml) + YDE-011 1 uM, stimulant alone Mean 4075.5
  IL-6 (ELISA), Mean: 3322.7
[3]; PBMC + PMA(1 ng/ml)/Ionomycin(0.5 ug/ml) + YDE-011 30 uM
  IL-6 (ELISA), individual wells: 3114.6 and 3025
[3]; PBMC + PMA(1 ng/ml)/Ionomycin(0.5 ug/ml) + YDE-011 30 uM, stimulant alone Mean 4075.5
  IL-6 (ELISA), Mean: 3069.8
[3]; PBMC + Poly I:C(25 ug/ml) + YDE-011 1 uM
  IL-6 (ELISA), individual wells: 13701 and 12585.1
[3]; PBMC + Poly I:C(25 ug/ml) + YDE-011 1 uM, Poly I:C alone Mean 21429.5
  IL-6 (ELISA), Mean: 13143.1
[3]; PBMC + Poly I:C(25 ug/ml) + YDE-011 30 uM
  IL-6 (ELISA), individual wells: 39230.7 and 30634.7
[3]; PBMC + Poly I:C(25 ug/ml) + YDE-011 30 uM, Poly I:C alone Mean 21429.5
  IL-6 (ELISA), Mean: 34932.7
[3]; higher concentration
  IL-6 induction in PBMCs (in words): diminished at a higher concentration
[3]; pilot studies
  IL-6 levels induced by LPS or poly I:C (in words): significantly reduced IL-6 levels induced by LPS or poly I:C

## CC(C)C[C@H](NC(=O)[C@H](CCC(N)=O)NC(=O)CNC(=O)[C@@H]1C[C@@H](O)CN1)C(=O)NCC(=O)O [YDE-043] (H-[Hyp]GQLG-OH; N-terminus and C-terminus assumed)
[1]; read-out: A to B % Recovery
  recovery: 34%
[1]; read-out: B to A % Recovery
  recovery: 67.2%
Caco-2 cells monolayer
  Classification (Caco-2 Permeability): LOW
[2]
  Poly I:C induced IL-6 cytokine release (in words): attenuate Poly I:C induced of IL-6 cytokine release in a dose dependent manner
  tested concentrations with significant attenuation of IL-6 cytokine release: 30 μM, 10 μM, 1 μM and 0.1 μM
[4]
  corneal damage induced by ELGE (in words): effective in improving corneal damaged induced by ELGE
